Consider two compounds from patent publication US20050124494A1, “Compositions comprising a phosphonic compound, and acids as methods for plant growth and regulatory effects” (priority 2003, published 2005).

This experiment relates to Cotton. The experiment is described as follows: Defoliation of cotton by ethephon with and without muratic acid, field trial Bells TN October 2003. As to conditions: for Cotton LEAF DEFOLIATION 3 DA-A: rating date Oct. 13, 2003, 3 days after application; for Cotton LEAF DEFOLIATION 6 DA-A: rating date Oct. 16, 2003, 6 days after application. It counts as in vivo. The source says:
A preferred mixture would be […] 10%-20% and Phosphoric Acid 1%-40%. This formulation would then be mixed with water as a carrier and applied to the foliage of the target plant at a rate of 3 gallons/Acre to 30 gallons/Acre.

Where [1] appears, read: ethephon 16 FL OZ/A (muratic acid 4 % V/V where combined).
Where [2] appears, read: ethephon 32 FL OZ/A (muratic acid 4 % V/V where combined).

`O=P(O)(O)CCCl` [ETHEPHON, (2-chloroethyl)phosphonic acid]: the “Cotton LEAF DEFOLIATION 3 DA-A” value is, setting by setting: under setting [1], 10.8%; under setting [2], 16.7%. For the same compound, the “Cotton LEAF DEFOLIATION 6 DA-A” value reads like this: under setting [1], 19.6%; under setting [2], 16.7%.

Regarding `Cl` [Muratic Acid], under “summary in words of Table 1”, the “Effect of added acid on efficacy of ethephon and speed of the effect on cotton defoliation” value was “increased the efficacy of ethephon and the speed of the effect”.
